What was measured:
[1] = target: T1, Transcriptional activator protein LasR (Pseudomonas aeruginosa (strain ATCC 15692 / PAO1 / 1C / PRS 101 / LMG12228)) (UniProt P25084); test: Inhibition of OdDHL-induced LasR activation in Pseudomonas aeruginosa PAKR02 harboring lasB::luxCDABE gene assessed as remaining Las activity at 10^-4 M after 24 hrs by bioluminescence assay
T1 sequence (whole entry): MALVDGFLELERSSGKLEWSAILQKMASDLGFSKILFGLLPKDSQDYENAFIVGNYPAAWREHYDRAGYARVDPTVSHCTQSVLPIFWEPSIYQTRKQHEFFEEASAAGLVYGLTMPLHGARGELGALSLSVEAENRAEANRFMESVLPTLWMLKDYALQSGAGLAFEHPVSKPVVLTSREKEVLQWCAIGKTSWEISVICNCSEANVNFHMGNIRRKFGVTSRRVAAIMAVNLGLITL

Jurkat = test: Cytotoxicity against human Jurkat E6-1 cells assessed as cell viability after 24 hrs by trypan blue exclusion assay; type: cell-based; conditions: for EC50: Homo sapiens, Jurkat; for Activity: human, jurkat
[2] = target: T1, Transcriptional activator protein LasR (Pseudomonas aeruginosa (strain ATCC 15692 / PAO1 / 1C / PRS 101 / LMG12228)); test: Induction of lasR-mediated quorum sensing in Pseudomonas aeruginosa PAKR02 harboring lasB::luxCDABE gene assessed as lasR-induction ratio at 10^-4 M after 24 hrs by bioluminescence assay relative to control
[3] = Immunosuppressive activity in mouse concanavalin A-stimulated peripheral blood leukocyte assessed as inhibition of leukocyte proliferation by [3H]thymidine incorporation assay; type: functional

`CCCCCCCCCNC(=O)CC(=O)N[C@H]1CCOC1=O` showed an Activity [1] of 3.4%, an EC50 (Jurkat) of 530 µM and a Ratio [2] of 1.01. It also gave an EC50 [3] of 23 µM.
Compound `CCCCCCCCCN(N)CC(=O)N[C@H]1CCOC1=O` has an Activity [1] of 55%, an EC50 (Jurkat) of 410 µM and a Ratio [2] of 1.03. The EC50 [3] was 8.9 µM.
Work on `CCCCCCCCNC(=O)C(F)C(=O)N[C@H]1CCOC1=O` (some centres undefined) yielded an Activity [1] of 57%, an EC50 (Jurkat) of 800 µM and a Ratio [2] of 0.91. It also gave an EC50 [3] of 26 µM.
In the case of `CCCCCCCCCSCC(=O)N[C@H]1CCOC1=O`, the Activity [1] is reported as 51%, the EC50 (Jurkat) is reported as over 1000 µM and the Ratio [2] is reported as 0.9. For the same compound, the EC50 [3] was over 1000 µM.
Work on `CCCCCCCCNC(=O)CC(=O)N[C@H]1CCOC1=O` yielded an Activity [1] of 20%, an EC50 (Jurkat) of 200 µM and a Ratio [2] of 1.06. The EC50 [3] was 35 µM.
For `CCCCCCCCCCC[S+]([O-])CC(=O)N[C@H]1CCOC1=O` (some centres undefined), the Activity [1] was 63%, the EC50 (Jurkat) was 45 µM and the Ratio [2] was 0.77. For the same compound, the EC50 [3] was 8.2 µM.
`CCCCOCCCNC(=O)CC(=O)N[C@@H]1CCC[C@@H]1O` showed an Activity [1] of 111%, an EC50 (Jurkat) of over 1000 µM and a Ratio [2] of 0.94. It also gave an EC50 [3] of 160 µM.
`CCCCCCCCNC(=O)CC(=O)N[C@@H]1CCC[C@@H]1O` gave an Activity [1] of 55%, an EC50 (Jurkat) of 400 µM and a Ratio [2] of 0.96. For the same compound, the EC50 [3] was 43 µM.
For `CCCCCCCCCC(=O)CC(=O)N[C@H]1CC(=O)NC1=O`, the Activity [1] was 82%, the Activity (Jurkat) was “Non-toxic” and the Ratio [2] was 1.04. For the same compound, the EC50 [3] was over 1000 µM.
For `CCCCCCCCOC(=O)CC(=O)N[C@H]1CCOC1=O`, the Activity [1] was 46%, the EC50 (Jurkat) was 500 µM and the Ratio [2] was 1.18. It also gave an EC50 [3] of 37 µM.
With `CCCCCCCCC/C(O)=C1/C(=O)N[C@@H](CCO)C1=O` the Activity [1] was 21%, the EC50 (Jurkat) was 52 µM and the Ratio [2] was 0.96. It also gave an EC50 [3] of 29 µM.
Work on `CCCCCCCCNC(=O)CC(=O)Nc1ccccc1C(=O)N(C)C` yielded an Activity [1] of 37%, an EC50 (Jurkat) of 160 µM and a Ratio [2] of 0.91. The EC50 [3] was 22 µM.
`CCCCCCCCCCCS(=O)(=O)CC(=O)N[C@H]1CCOC1=O` gave an Activity [1] of 76%, an EC50 (Jurkat) of 170 µM and a Ratio [2] of 0.75. For the same compound, the EC50 [3] was 8.3 µM.
For `CCCCCCCCCC(=O)CC(=O)N[C@H]1CCC(=O)NC1=O`, the Activity [1] was 71%, the Activity (Jurkat) was “Non-toxic” and the Ratio [2] was 1.03. The EC50 [3] was 77 µM.
With `CCCCCCCCCC(CC(=O)N[C@H]1CCOC1=O)OC(C)=O` (mixture of isomers) the Activity [1] was 70%, the EC50 (Jurkat) was 120 µM and the Ratio [2] was 1.13. For the same compound, the EC50 [3] was 5.2 µM.
`CCCCCCCCNC(=O)CC(=O)N[C@@H]1CCCC[C@@H]1O` gave an Activity [1] of 45%, an EC50 (Jurkat) of 400 µM and a Ratio [2] of 0.92. For the same compound, the EC50 [3] was 32 µM.
With `CCOCCOCCNC(=O)CC(=O)N[C@@H]1CCC[C@@H]1O` the Activity [1] was 89%, the EC50 (Jurkat) was 700 µM and the Ratio [2] was 1.03. It also gave an EC50 [3] of 192 µM.
Work on `CCCCCCCCN(CCO)C(=O)CC(=O)N[C@H]1CCOC1=O` yielded an Activity [1] of 16%, an EC50 (Jurkat) of 300 µM and a Ratio [2] of 1.01. For the same compound, the EC50 [3] was 41 µM.
In the case of `CCCCCCCCNC(=O)CC(=O)NC1CCCCCC1`, the Activity [1] is reported as 19%, the EC50 (Jurkat) is reported as 78 µM and the Ratio [2] is reported as 0.9. The EC50 [3] was 14 µM.
With `CCCCCCCCC[S+]([O-])CC(=O)N[C@H]1CCOC1=O` (some centres undefined) the EC50 (Jurkat) was 720 µM and the EC50 [3] was 27 µM.
`CCCCCCCCCCCNC(=O)CC(=O)N[C@H]1CCOC1=O` gave an Activity [1] of 14%, an EC50 (Jurkat) of 140 µM and a Ratio [2] of 0.72. It also gave an EC50 [3] of 12 µM.
`CCCCCCCCNC(=O)C(F)(F)C(=O)N[C@H]1CCOC1=O` gave an Activity [1] of 6%, an EC50 (Jurkat) of over 1000 µM and an EC50 [3] of 97 µM.
For `CCCCCCCCNC(=O)CC(=O)Nc1ccccc1C(N)=O`, the Activity [1] was 23%, the EC50 (Jurkat) was 120 µM and the Ratio [2] was 0.8. It also gave an EC50 [3] of 25 µM.
Compound `CCCCCCCCNS(=O)(=O)CC(=O)N[C@H]1CCOC1=O` has an Activity [1] of 101%, an EC50 (Jurkat) of 900 µM and a Ratio [2] of 1.02. It also gave an EC50 [3] of 13 µM.
`CCCCCCCCCC(=O)CC(=O)Nc1nccs1` showed an Activity [1] of 51%, an EC50 (Jurkat) of 800 µM and a Ratio [2] of 0.87. The EC50 [3] was 25 µM.
In the case of `CCCCCCCCCN(O)CC(=O)N[C@H]1CCOC1=O`, the Activity [1] is reported as 69%, the EC50 (Jurkat) is reported as 400 µM and the Ratio [2] is reported as 0.99. The EC50 [3] was 13 µM.
Work on `CCCCOCCCNC(=O)CC(=O)N[C@H]1CCOC1=O` yielded an Activity [1] of 108%, an EC50 (Jurkat) of over 1000 µM and a Ratio [2] of 0.97. It also gave an EC50 [3] of 101 µM.
Compound `CCCCCCCCNC(=O)CC(=O)Nc1cc(Cl)ccc1O` has an Activity [1] of 66%, an EC50 (Jurkat) of over 1000 µM and a Ratio [2] of 0.62. For the same compound, the EC50 [3] was 9.3 µM.
In the case of `CCCCCCCCCS(=O)(=O)CC(=O)N[C@H]1CCOC1=O`, the Activity [1] is reported as 72%, the EC50 (Jurkat) is reported as 200 µM and the Ratio [2] is reported as 0.92. It also gave an EC50 [3] of 31 µM.
For `CCCCCCCCNC(=O)CS(=O)(=O)N[C@H]1CCOC1=O`, the Activity [1] was 86%, the EC50 (Jurkat) was 220 µM and the Ratio [2] was 1.04. It also gave an EC50 [3] of 9.1 µM.
`CCCCCCCCN(C)C(=O)CC(=O)N[C@H]1CCOC1=O` showed an Activity [1] of 60%, an EC50 (Jurkat) of over 1000 µM and a Ratio [2] of 0.91. For the same compound, the EC50 [3] was 22 µM.
`CCCCCCCCNC(=O)CC(=O)Nc1ccc2[nH]ncc2c1` showed an Activity [1] of 62%, an EC50 (Jurkat) of over 1000 µM and a Ratio [2] of 1.1. For the same compound, the EC50 [3] was 55 µM.
`CCOCCOCCNC(=O)CC(=O)N[C@H]1CCOC1=O` gave an Activity [1] of 61%, an EC50 (Jurkat) of over 1000 µM and a Ratio [2] of 1.02. For the same compound, the EC50 [3] was over 1000 µM.
With `CCCCCCCCNC(=O)CC(=O)Nc1cccc(C(N)=O)c1` the Activity [1] was 59%, the EC50 (Jurkat) was 700 µM and the Ratio [2] was 0.81. For the same compound, the EC50 [3] was 15 µM.
For `CCCCCCCCCN(CC(=O)N[C@H]1CCOC1=O)OCc1ccccc1`, the EC50 (Jurkat) was 63 µM and the EC50 [3] was 17 µM.
`CCCCCCCCCC(=O)CC(=O)N[C@H]1CCOC1=O` gave an EC50 (Jurkat) of 250 µM, a Ratio [2] of 12.3 and an EC50 [3] of 21 µM.
In the case of `CCCCCCCCNC(=O)CC(=O)Nc1nccs1`, the Activity [1] is reported as 64%, the EC50 (Jurkat) is reported as 600 µM and the Ratio [2] is reported as 0.9. It also gave an EC50 [3] of 27 µM.
In the case of `CCCCCCCCN(CCC)C(=O)CC(=O)N[C@H]1CCOC1=O`, the Activity [1] is reported as 101%, the EC50 (Jurkat) is reported as 200 µM and the Ratio [2] is reported as 0.99. It also gave an EC50 [3] of 28 µM.
For `CCCCCCCCNC(=O)CC(=O)Nc1ccccn1`, the Activity [1] was 41%, the EC50 (Jurkat) was over 1000 µM and the Ratio [2] was 0.91. For the same compound, the EC50 [3] was 18 µM.
`CCCCCCCCNC(=O)CC(=O)Nc1ccccc1O` showed an Activity [1] of 29%, an EC50 (Jurkat) of over 1000 µM and a Ratio [2] of 0.79. For the same compound, the EC50 [3] was 22 µM.

From ChEMBL document CHEMBL1773053, “Immunosuppressive but non-LasR-inducing analogues of the Pseudomonas aeruginosa quorum-sensing molecule N-(3-oxododecanoyl)-l-homoserine lactone” (J Med Chem, 2011)
